Converted amounts (≈) assume the structure as drawn. Where two headings read alike, the source gives them in different places.
Assays:
[1] = tested on: B. thetaiotaomicron ATCC 29741; experiment: Antibacterial MIC, CLSI broth microdilution; format: cell-based; settings: for MIC: Bacteroides thetaiotaomicron
Method: (§1) Grain (−) and gram (+) antibacterial minimum inhibitory concentration (MIC) values (μg/mL) were obtained using CLSI methodology for anti-bacterial susceptibility testing. On each day of testing, serial dilutions of compounds were prepared in microdilution plates using a Tecan robotic workstation. Mueller Hinton broth cultures of representative sensitive and resistant gram negative strains were grown or adjusted to match the turbidity of a 0.5 McFarland standard. 1:200 dilutions were made in an appropriate broth (cation supplemented Mueller Hinton broth) to allow a final inoculum of 1×10^5 cfu. Plates were incubated at 35° C. in ambient air for 18-24 hours, were read spectrophotometrically and checked manually for evidence of bacterial growth. The lowest dilution of compound that inhibited growth was recorded as the MIC. Lysed horse blood was used to supplement broth for testing S. pneumoniae. The MIC's for each compound were assessed against S. aureus, S. pneumoniae, P. acnes, E. coli and B. theta.

[2] = tested on: E. coli ATCC 25922; experiment: Antibacterial MIC, CLSI broth microdilution; format: cell-based; settings: 35° C., 18-24 hours; for MIC: Escherichia coli, ATCC25922
Method: as §1

[3] = tested on: E. coli MG 1655; experiment: Antibacterial MIC, CLSI broth microdilution; format: cell-based; settings: 35° C., 18-24 hours; for MIC: Escherichia coli, MG1655
Method: as §1

[4] = tested on: P. acnes ATCC 11827; experiment: Antibacterial MIC, CLSI broth microdilution; format: cell-based; settings: 35° C., 18-24 hours; for MIC: Cutibacterium acnes, ATCC11827
Method: as §1

[5] = tested on: P. acnes ATCC 6919; experiment: Antibacterial MIC, CLSI broth microdilution; format: cell-based; settings: 35° C., 18-24 hours; for MIC: Cutibacterium acnes, ATCC6919
Method: as §1

[6] = tested on: S. aureus RN450; experiment: Antibacterial MIC, CLSI broth microdilution; format: cell-based; settings: 35° C., 18-24 hours; for MIC: Staphylococcus aureus, RN450
Method: as §1

[7] = tested on: S. pneumoniae 157E - Strep; experiment: Antibacterial MIC, CLSI broth microdilution; format: cell-based; settings: 35° C., 18-24 hours, lysed horse blood; for MIC: Streptococcus pneumoniae, 157ESTREP
Method: as §1

[8] = tested on: S. aureus RN450; experiment: In vivo anti-bacterial activity, S. aureus model; settings: mice, 24 hours; for ED50 / responders at 5 mg/kg: Staphylococcus aureus, sc; for ED50: read-out: PD50 (dose that protects 50% of the animals); for responders at 5 mg/kg: read-out: Percent Survival
Method: Groups of five mice were injected intraperitoneally with a lethal dose of S. aureus RN450 in a medium of mucin. Mice were evaluated at 24 hours to determine survival. […] In some instances, a dose response study was performed with the compound such that a PD50 (a dose of compound that protects 50% of the animals) could be calculated.

[9] = in vitro; format: cell-based
Method: Mammalian cell cytotoxicity was assessed to evaluate potential in vivo risks associated with the tetracycline compounds of the invention. A soluble, non-toxic redox dye (“Resazurin”; Alamar Blue) was used to assess a tetracycline compound's effect on cellular metabolism. At the onset of the experiment, cultures of mammalian COS-1 or CHO cells were washed, trypsinized, and harvested. […] On the next day, serial dilutions of test drug were prepared under sterile conditions and transferred to cell plates. Plates were then incubated under the above conditions for 24 hours. Following the incubation period, the media/drug was aspirated, and 50 μL of resazurin was added. Plates were then incubated under the above conditions for 2 hours and then in the dark at room temperature for an additional 30 minutes. Fluorescence measurements were taken (excitation 535 nm, emission 590 nm) and toxic effects in treated versus control cells were compared based on the degree of fluorescence in each well.

[10] = lethal IP S. aureus RN450, subcutaneous
[11] = ATCC29741, 35° C., 18-24 hours, read-out: MIC B. thetaiotaomicron ATCC 29741
[12] = lethal IP S. aureus RN450, single subcutaneous dose 5 mg/kg

| Compound | MIC [1, 11] | MIC [2] | MIC [3] | MIC [4] | MIC [5] | MIC [6] | MIC [7] | IC50 at 24 h ([9]; African green monkey) | IC50 at 24 h ([9]; Chinese hamster) | ED50 [8, 10] | responders at 5 mg/kg [8, 12] | other results |
| --- | --- | --- | --- | --- | --- | --- | --- | --- | --- | --- | --- | --- |
| (4S,4aS,5aR,12aS)-4-Dimethylamino-3,12,12a-trihydroxy-1,11-dioxo-7-pyrazin-2-yl-1,4,4a,5,5a,6,11,12a-octahydro-naphthacene-2-carboxylic acid amide [W] |  |  |  |  |  |  |  |  |  |  |  | MIC B. thetaiotaomicron ATCC 29741 ([1]; 35° C., 18-24 hours): * (weak or no antibacterial activity (greater than about 8 μg/mL)); MIC E. coli ATCC 25922 [2]: * (weak or no antibacterial activity (greater than about 8 μg/mL)); MIC E. coli MG 1655 [3]: * (weak or no antibacterial activity (greater than about 8 μg/mL)); MIC P. acnes ATCC 11827 [4]: *** (Good antibacterial activity (e.g., less than about 4 μg/mL)); MIC P. acnes ATCC 6919 [5]: *** (Good antibacterial activity (e.g., less than about 4 μg/mL)); MIC S. aureus RN450 [6]: *** (Good antibacterial activity (e.g., less than about 4 μg/mL)); MIC S. pneumoniae 157E - Strep [7]: *** (Good antibacterial activity (e.g., less than about 4 μg/mL)); PD50 (dose that protects 50% of the animals) [8, 10]: 1.08 mg/kg |
| CO/N=C/c1cc(N(C)C)c2c(c1O)C(=O)C1=C(O)[C@]3(O)C(=O)C(C(N)=O)=C(O)[C@@H](N(C)C)[C@@H]3C[C@@H]1C2 [V, (4S,4aS,5aR,12aS)-4,7-Bis-dimethylamino-3,10,12,12a-tetrahydroxy-9-(methoxyimino-methyl)-1,11-dioxo-1,4,4a,5,5a,6,11,12a-octahydro-naphthacene-2-carboxylic acid amide] | 4 to 8 mg/L (≈ 7.77 to 15.5 µM) | > 8 mg/L | > 8 mg/L | < 4 mg/L | < 4 mg/L | < 4 mg/L | < 4 mg/L | < 35 mg/L | < 35 mg/L | 1.4 mg/kg |  |  |
| CNc1c(-c2ccc(O)c3c2C[C@H]2C[C@H]4[C@H](N(C)C)C(O)=C(C(N)=O)C(=O)[C@@]4(O)C(O)=C2C3=O)c(=O)c1=O [AD, (4S,4aS,5aR,12aS)-4-Dimethylamino-3,10,12,12a-tetrahydroxy-7-(2-methylamino-3,4-dioxo-cyclobut-1-enyl)-1,11-dioxo-1,4,4a,5,5a,6,11,12a-octahydro-naphthacene-2-carboxylic acid amide] | > 8 mg/L | 4 to 8 mg/L (≈ 7.64 to 15.3 µM) | 4 to 8 mg/L (≈ 7.64 to 15.3 µM) | < 4 mg/L | < 4 mg/L | < 4 mg/L | < 4 mg/L | < 35 mg/L | < 35 mg/L | 4.54 mg/kg |  |  |
| CN(C)c1cccc2c1C[C@H]1C[C@H]3[C@H](N(C)C)C(O)=C(C(N)=O)C(=O)[C@@]3(O)C(O)=C1C2=O [C] | > 8 mg/L | > 8 mg/L | > 8 mg/L | < 4 mg/L | < 4 mg/L | < 4 mg/L | < 4 mg/L | > 75 mg/L | > 75 mg/L |  | 100% |  |
| CC(C)ONCc1ccc(O)c2c1C[C@H]1C[C@H]3[C@H](N(C)C)C(O)=C(C(N)=O)C(=O)[C@@]3(O)C(O)=C1C2=O [DV, (4S,4aS,5aR,12aS-4-Dimethylamino-3,10,12,12a-tetrahydroxy-7-isopropoxyamino-methyl)-1,11-dioxo-1,4,4a,5,5a,6,11,12a-octahydro-naphthacene-2-carboxylic acid amide] | 4 to 8 mg/L (≈ 7.98 to 16 µM) | 4 to 8 mg/L (≈ 7.98 to 16 µM) | > 8 mg/L | < 4 mg/L | < 4 mg/L | < 4 mg/L | < 4 mg/L | < 35 mg/L | < 35 mg/L | 1.1 mg/kg |  |  |
| C[C@H]1c2cccc(O)c2C(=O)C2=C(O)[C@]3(O)C(=O)C(C(N)=O)=C(O)[C@@H](N(C)C)[C@@H]3[C@@H](O)[C@@H]21 [Doxycycline, reference compound] |  | < 4 mg/L | < 4 mg/L | < 4 mg/L | < 4 mg/L | < 4 mg/L | < 4 mg/L | > 75 mg/L | > 75 mg/L | 0.13 mg/kg | 100% | MIC ([1]; ATCC29741, read-out: MIC B. thetaiotaomicron ATCC 29741): 4 to 8 mg/L (≈ 9 to 18 µM); Percent Survival ([8]; lethal IP S. aureus RN450, single subcutaneous dose 5 mg/kg, 5 mg/kg): 100 (5/5) Percent |
